Test results from PubChem BioAssay (NCI).
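The compound was tested at five concentrations on cells cultured in 96-well plates, with a 48-hour exposure period. GI50 = concentration required for 50% inhibition of growth. TGI is the concentration that stops growth completely.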

What was measured:
Experiment in all cases: DTP human tumour cell line panel, 48 h
HCT-116 colon = test system: HCT-116 colon
MOLT-4 leukemia = test system: MOLT-4 leukemia
LOX IMVI melanoma = test system: LOX IMVI melanoma
OVCAR-8 ovarian = test system: OVCAR-8 ovarian
OVCAR-5 ovarian = test system: OVCAR-5 ovarian
M14 melanoma = test system: M14 melanoma
SNB-75 CNS = test system: SNB-75 CNS
HL-60(TB) leukemia = test system: HL-60(TB) leukemia
MDA-MB-231 breast = test system: MDA-MB-231 breast
HS 578T breast = test system: HS 578T breast

Structure (SMILES)	TGI (HCT-116 colon) [µM]	TGI (MOLT-4 leukemia) [µM]	TGI (LOX IMVI melanoma) [µM]	TGI (OVCAR-8 ovarian) [µM]	TGI (OVCAR-5 ovarian) [µM]	TGI (M14 melanoma) [µM]	TGI (SNB-75 CNS) [µM]	TGI (HL-60(TB) leukemia) [µM]	GI50 (HCT-116 colon) [µM]	GI50 (MDA-MB-231 breast) [nM]	TGI (MDA-MB-231 breast) [µM]	GI50 (MOLT-4 leukemia) [µM]	GI50 (HS 578T breast) [µM]	TGI (HS 578T breast) [µM]	GI50 (LOX IMVI melanoma) [nM]	GI50 (OVCAR-8 ovarian) [µM]	GI50 (OVCAR-5 ovarian) [µM]	GI50 (M14 melanoma) [µM]	GI50 (SNB-75 CNS) [nM]	GI50 (HL-60(TB) leukemia) [µM]
COc1ccc(/C=C2\CCC(C)(CN(C)C)C2=O)cc1OC (stereo not given)	> 100	> 100	> 100	> 100	> 100	> 100	> 100													
O=C(CC1SC(=Nc2ccccc2Cl)NC1=O)Nc1ccc(Cl)cc1Cl (stereo not given)	> 100	> 100	> 100	> 100	> 100	> 100	> 100	> 100												
Cc1ccc(NC(=O)CC2C(=O)Nc3ccccc3S2(=O)=O)c(C)c1 (stereo not given)	24.9	28.7	29	34.6	46.9	26.2	38.6	14												
O=c1[nH]cc(F)c(=O)n1C1OC(CO)C(O)C1O (stereo not given)		> 100	> 100	> 100	> 100	> 100	> 100	> 100												
O=C(O)/C=C/c1nc2ccccc2c(=O)o1	> 100	> 100	> 100	> 100		> 100	> 100	> 100												
NC(=O)NNC(=O)NC12CC3CC(CC(C3)C1)C2	> 100	> 100	> 100	> 100	> 100	> 100	> 100	> 100												
NC(=O)c1csc(C2OC(COP(=O)(O)CP(=O)(O)OCC3OC(n4cnc5c(N)ncnc54)C(O)C3O)C(O)C2O)n1 (stereo not given)		> 100	> 100	> 100	> 100	> 100	> 100	> 100												
O=S(=O)(c1cccc(N=C=S)c1)c1cccc(N=C=S)c1	32	30.6	31.6		> 100	25.6		50												
Cc1cc(C)nc(NS(=O)(=O)c2ccc(Nc3c4ccccc4nc4c(C(=O)Nc5ccc(S(=O)(=O)N=C(N)N)cc5)cccc34)cc2)n1		> 100	> 100	> 100	> 100	> 100	88.5													
O=C1Nc2ccccc2N=CC1NC(=O)C(c1ccccc1)c1ccccc1 (stereo not given)	> 100	> 100	> 100	> 100	> 100	> 100	> 100	> 100												
CC12CCC(=O)N1c1ccc([N+](=O)[O-])cc1N2 (stereo not given)	> 100	> 100	> 100	> 100		> 100	> 100	> 100												
COc1ccc(CCC2c3cc(OC)c(OC)cc3CCN2C)cc1OC (stereo not given)	> 100	> 100	> 100	> 100	> 100	> 100	> 100	> 100												
O=S(=O)(/C=C/C(=C/c1ccccc1)S(=O)(=O)c1ccccc1)c1ccccc1	3.13	5.21	2.08	3.08		2.57	3.43													
O=C(Nc1cccc(-n2cc(-c3ccncc3)c(-c3cc(O)cc(Cl)c3)n2)c1)c1cc(C(F)(F)F)cc(C(F)(F)F)c1	> 100	> 100	13.7	> 100	38.4	> 100	> 100		3.23	1420	3.32	2.38	6.38	> 100	3290	3.58	8.23	3.01	2800	
COc1cc2c(cc1OCCCCN1CCN(C(=S)SCCC(C#N)(c3ccccc3)c3ccccc3)CC1)N=C[C@@H]1CCCN1C2=O				> 100	5.38		3.68	1.57		1530	4.73					1.59	2.47		1640	0.324
C[CH2][Sn]([CH2]C)([O]C(=O)c1ccccc1OC)[O][Sn]([CH2]C)([CH2]C)[O]C(=O)c1ccccc1OC	> 100	> 100	> 100	> 100	> 100	> 100	> 100	> 100	> 100			> 100			73000	> 100	> 100	> 100	> 100000	> 100
Cc1ccc(S(=O)(=O)N/N=C(/CC(=O)c2c(C)n([O-])c3ccccc3[n+]2=O)C(=O)Nc2ccccc2C)cc1	> 100				> 100	> 100	> 100													

Structure (SMILES)	TGI (HCT-116 colon) [µM]	TGI (MOLT-4 leukemia) [µM]	TGI (LOX IMVI melanoma) [µM]	TGI (OVCAR-8 ovarian) [µM]	TGI (OVCAR-5 ovarian) [µM]	TGI (M14 melanoma) [µM]	TGI (SNB-75 CNS) [µM]	TGI (HL-60(TB) leukemia) [µM]	GI50 (HCT-116 colon) [µM]	GI50 (MDA-MB-231 breast) [nM]	TGI (MDA-MB-231 breast) [µM]	GI50 (MOLT-4 leukemia) [µM]	GI50 (HS 578T breast) [µM]	TGI (HS 578T breast) [µM]	GI50 (LOX IMVI melanoma) [nM]	GI50 (OVCAR-8 ovarian) [µM]	GI50 (OVCAR-5 ovarian) [µM]	GI50 (M14 melanoma) [µM]	GI50 (SNB-75 CNS) [nM]	GI50 (HL-60(TB) leukemia) [µM]
C(=N/N(Cc1ccccc1)Cc1ccccc1)/c1ccccc1	> 100		> 100	> 100	> 100	> 100	> 100		26.1	> 100000	> 100		51.1	> 100	> 100000	> 100	> 100	90.1	> 100000	
COc1ccc(N(CC(=O)NCCC[Te]c2ccccc2)C(=O)CNC(=O)OC(C)(C)C)cc1	6.45	9.89	5.76	6.92	7.48	10.6	7.43	5.6	2.07			3.08	2.77	7.31	2330	2.41	3	3.53	2070	2.08
COCOCC/C=C/C=O	> 100	> 100	> 100	> 100	> 100	> 100	> 100	> 100												
Cc1cc(C#Cc2ccc(C(C)(C)C)cc2)ccc1-n1c(/C=C/c2ccc(O)cc2O)nc2ccccc2c1=O	10.8	10.2	2.87	12.5	16.4	25.6	16		2.89	3060	9.59	2.45	2.2	5.87	1490	3.55	4.25	5.91	1870	
O=C(O)Cc1cccnc1	> 100	> 100	> 100	> 100	> 100	> 100	> 100				> 100			> 100						
CC(=O)OCCOCNC(=S)N/N=C/c1cc(Br)cs1	> 100	> 100	> 100	> 100	> 100	> 100	> 100	> 100												
O=C(c1nc2ccccc2[nH]c1=O)C(O)c1ccccc1 (stereo not given)	> 100	> 100	> 100	> 100	> 100	> 100		> 100												
Cc1ccc(C)c(N2C(=O)C(=O)C(c3nc4ccccc4s3)/C(=N/NC(=O)NN)C2=O)c1 (stereo not given)	> 100	> 100		> 100		> 100	> 100	> 100												
C=C1CCC2[C@@H](CCC3[C@]2(C)CCC[C@]3(C)C(=O)OC)C1CC=O (stereo not given in full)	29.4	29.8		37.3	31.8	30.6		40.1				11.2					16.7			
CN(CCNCc1ccccn1)CCNCc1ccccn1	4.7	> 100	6.88	7.62	8.57	5.93	16	23.3	2.18	2560	5.93	3.61			2480	2.99	2.66	2.26	3040	3.27
COc1ccc(-c2cc(C(=O)Nc3ccc(C)c(C)c3)nc(NC#N)n2)cc1	> 100	> 100	> 100	> 100	> 100	> 100	> 100													
CC1(c2ccccc2Cl)C(C#N)C(=O)NC(=O)C1C#N (stereo not given)		> 100	> 100	> 100	> 100	> 100	75.4	48.5												
COc1cc2c(cc1OC)-c1ncc3c(OC)c(OC)c(OC)cc3c1C2	64.7			38.5	> 100	> 100	> 100	> 100	8.81	404	11.6					16.3	26.6	> 100	28900	10.2
COCCNC(=O)C1C(=O)C(=O)N(CCOC)C1=O (stereo not given)	> 100		> 100	> 100	> 100	> 100	> 100													
Cc1nc(C(=O)O)c2ccccc2n1	> 100	> 100		> 100	> 100		> 100	> 100												
CCCCC1(C)C=C/C(=C2/C(=O)O/C(=C\C(=O)O)C2=O)O1 (stereo not given)	> 100	> 100	> 100	> 100	> 100	> 100	> 100	> 100												
